Molecules are shown by their SMILES.

As usually defined, the IC50 is the concentration needed to halve the response being measured.

For this test, the target named is Beta-glucuronidase (Escherichia coli (strain K12), UniProt P05804). Put plainly: β-Glucuronidase Activity Assay.
Chain of Beta-glucuronidase (P05804 whole entry): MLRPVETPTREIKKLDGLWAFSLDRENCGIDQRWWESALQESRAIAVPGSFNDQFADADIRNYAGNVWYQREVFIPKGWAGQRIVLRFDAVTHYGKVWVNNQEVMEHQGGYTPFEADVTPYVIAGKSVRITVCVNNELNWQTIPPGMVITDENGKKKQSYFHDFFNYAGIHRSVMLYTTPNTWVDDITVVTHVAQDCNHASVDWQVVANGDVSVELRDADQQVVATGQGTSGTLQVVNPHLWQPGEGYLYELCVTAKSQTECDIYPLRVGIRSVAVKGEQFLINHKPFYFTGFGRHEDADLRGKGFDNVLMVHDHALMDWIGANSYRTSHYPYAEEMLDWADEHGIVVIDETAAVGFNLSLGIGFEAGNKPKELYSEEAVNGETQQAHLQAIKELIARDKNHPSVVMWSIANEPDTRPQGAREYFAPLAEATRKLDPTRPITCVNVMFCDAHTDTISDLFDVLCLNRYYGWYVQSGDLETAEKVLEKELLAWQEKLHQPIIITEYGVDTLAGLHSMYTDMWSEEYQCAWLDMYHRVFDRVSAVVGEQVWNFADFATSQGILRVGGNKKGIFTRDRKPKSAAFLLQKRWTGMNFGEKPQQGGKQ

Protocol: The β-glucuronidase assay was performed by the addition of 0.5 μl of compound (or DMSO) to the well of a black 384-well plate followed by the addition of 30 μl of diluted β-glucuronidase enzyme. […] After a 30 minute incubation at room temperature, the reaction was stopped by the addition of 20 ul 1 M Na2CO3. […] Minimum (min) controls were performed using reactions with no enzyme. Maximum (max) controls were performed using no compound. 1% DMSO was maintained in all reactions. Percent inhibition was calculated using RFU data by the following formula: [1−(assay readout-average of min)/(Average of Max-Average of Min)]×100

Compound `O=S(=O)(NCc1cccc2ccccc12)c1cc(Cl)c(Oc2ccc3c(c2)OCO3)s1` [US9617239, BRITE-355233] showed a 50% inhibitory concentration (IC50) of 376 µM.

These data come from BindingDB's records for patent US9617239 (North Carolina Central University, 2017).
